# Legend:
# thrombin generation (TG) [1] = assay type: biochemical, human; conditions: 2 μM hirugen, PRP with CTI and anti-FXI MoAb
# Experimental: TG in PRP or reconstituted PRP was evaluated as known to those skilled in the art. Native PRP was prepared from blood collected into final 12.9 mM trisodium citrate by centrifugation at 250 g for 10 min at 25° C. The platelet count was adjusted to 180×10^3/μl by dilution with homologous PPP obtained by centrifuging PRP for 10 min at 1,500 g. CTI was added at 30-50 μg/ml depending on calibrated potency as assessed by FXIIa inhibition. Reconstituted PRP was prepared with washed platelets prepared from normal PRP by adding ⅕th volume of acid citrate-dextrose (71 mM citric acid, 85 mM trisodium citrate, and 111 mM dextrose, pH 4.5) and 5 U/ml apyrase; following centrifugation at 1,500 g for 10 minutes at 25° C., the platelet pellet was resuspended into PPP lacking FVII (George King Bio-Medical) or FIX (Haematologic Technologies) to give a final platelet count of 180·103/μl PRP was mixed with varying concentrations of rTF and/or 20 pM FIXa in 96-well microtiter plates. The reaction was started by adding 18 mM CaCl2 with 360 μM of the thrombin substrate benzyloxycarbonyl-glycyl-glycyl-L-arginine coupled to the fluorogenic group 7-amido-4-methylcoumarin (Gly-Gly-Arg-AMC; Bachem Americas, Torrance, Calif.). Fluorescence was measured continuously at 37° C. for up to 40 min in a spectrofluorometer (355/460 nm excitation/emission). The rate of fluorescence intensity increase as a function of time (dF/dt) was calculated with Turbo Delphi 2006 (Borland Software Corporation, Austin, Tex.) and converted to thrombin-equivalent concentration (nM) using a calibration curve. The endogenous thrombin potential (ETP) of samples, i.e. total generated thrombin activity, was determined from the area under the TG curve. When specified, TG was measured with a discontinuous 2-stage assay with a detection limit of 5 pM. For this, TG was induced by 0.15 pM rTF and 18 mM CaCl2 in reconstituted FVII-deficient PRP including 30 μg/ml CTI with 400 pM WT FVIIa or iFVIIa without or with 20 pM FIXa. After incubation for up to 11 min at 37° C., reactions were terminated by adding 20 mM EDTA and generated thrombin was measured using the highly sensitive thrombin substrate H-D-CHA-Ala-Arg-AMC.2AcOH (Pefafluor TH, Pentapharm, Basel, Switzerland) at 50 μM concentration. In other experiments, TG was induced by TFiFVIIa-FXa-TFPI or TF-iFVIIa-FXa-NAPc2. These stable complexes were pre-formed by incubating 5 nM FXa, 10 nM TF, 10 nM iFVIIa and 40 nM TFPI or NAPc2 in the presence of 2.5 mM CaCl2 for 2 min at 37° C. Complexes were added into FVII-deficient PRP, followed by incubation for 8 min at 37° C.
# PRP was prepared from blood collected into trisodium citrate (final concentration 0.0129 M) by centrifugation for at 250 g for 10 min at 25° C.; the platelet count was adjusted at 180.103 per μl by diluting with homologous platelet-poor plasma (PPP) obtained by centrifuging PRP for an additional 10 min at 1,500 g. When indicated, CTI was added at 30 to 50 μg/ml depending on calibrated potency measured by FXIIa inhibition. Reconstituted PRP was prepared by adding normal washed platelets into PPP (without or with CTI) lacking FVII, FVIII (both from George King Bio-Medical, Overland Park, Kans.) or FIX (Haematologic Technologies). […] generation in PRP was measured as described by Hemker et al. 53 μl of PRP was mixed in 96-well microtiter plates with 15 μl of a solution containing rTF and/or one of the intrinsic coagulation pathway proteases—FXIIa, FXIa or FIXa—to achieve the indicated final concentrations. Antibodies or inhibitors were also added at this point at the concentration indicated for each specific case. The reaction was started by adding between 15 and 20 μl of 100 mM CaCl2 and 2 mM fluorogenic substrate, benzyloxycarbonyl-glycyl-glycyl-L-arginine-7-amido-4-methylcoumarin (Gly-Gly-Arg-AMC; Bachem Americas, Torrance, Calif.).
# thrombin generation (TG) [2] = experiment: TG in FVII-deficient reconstituted PRP with FVIIa WT or mutants; assay type: biochemical, human; conditions: FVII-deficient plasma
# Experimental: (A) Phospholipid-free assay of FX (1 μM) to FXa conversion by the complex of 2 μM soluble rTF with 10 nM FVIIa WT, T99Y or E154A. (B) FXa generation by 50 pM phospholipid-reconstituted rTF with 200 pM FVIIa WT, T99Y or E154A added to 135 nM FX, 0.7 nM FVIII, 3 nM FV and 200 nM lepirudin (2 min, n=2-3; 4 min, n=4-5; 6 min, n=6-9). (C) WB (representing 2) of FVIII activation in reactions of 50 pM TF, 200 pM FVIIa WT or mutants, 0.7 nM FVIII, 3 nM FV and 200 nM lepirudin without/with 135 nM FX, incubated for 120 s at 37° C. […] (E) FXa generation measured in reactions as in (D) without TFPIα and in the presence of 10 nM FIXa (left, incubation 180 s; n=5-6 except=2 for E154A) or 90 nM FIX (right, incubation for 360 s; n=5-6). […] Differences were evaluated by the ANOVA/Tukey test; results at 4 and 6 min in (B) and in reactions with FIX in (E, right) were analyzed after transformation as y=log 10 y (**P<0.01, ***P<0.001).
# Thrombin was quantified with a fluorogenic substrate for calculation of % inhibition. […] Endogenous thrombin potential (ETP, right) was calculated from the area under the TG curve (n=2). […] Differences were evaluated with the ANOVA/Tukey test (performed after log 10 transformation of the data shown in E); *P<0.05, ***P<0.001. […]
# thrombin = thrombin (Homo sapiens, UniProt P00734); conditions: 0.5 nM FIIa, 50 pM rTF, 180 s
# Experimental: FVIII activation by stable FXa complexes with TF-FVIIa was tested in reactions containing FVIII, FV and lepirudin with or without TFPIα, with incubation for 30-120 s at 37° C. […] The inhibitory effect of hirugen on FVIIIa generation by FIIa was tested in reactions with 0.5 nM FIIa incubated with 50 pM rTF and FVIII for 180 s at 37° C.
substance,measurement,setting,value
63-O-Sulfo-Tyr-hirudin [hirugen],effect on FIXa-dependent TG,thrombin generation (TG) [1],blocked
same,effect on TG by FIXa combined with rTF,thrombin generation (TG) [1],failed to inhibit
same,effect on FIXa-initiated TG,thrombin generation (TG) [2],abolished
same,effect on FVIII activation by thrombin,thrombin,dose-dependently inhibited

# Source: patent US11136370B2, “Compositions and methods for thrombin generation assay” (The Scripps Research Institute, priority 2016, dated 2021)
